Experimental findings from ChEMBL document CHEMBL1201862, “PubChem BioAssay data set” (2004) are described below.

Calls of active or inactive are those of the source.

The target in experiment [1] is Type-1 angiotensin II receptor (Homo sapiens, UniProt P30556). The experiment is described as follows: AT1 receptor antagonists, dose response, selectivity assay for APJ receptor antagonist project, cell-based, uHTS hits (AID 463214).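 Also: antagonist potency against angiotensin II stimulated AT1 response.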 It counts as functional.
The target of a further experiment is Beta-galactosidase (Escherichia coli, UniProt Q8VNN2). Briefly: PubChem AID 485352. The class given is functional.
Experiment [2] concerns HEK293. Briefly: cells. Conditions: Homo sapiens.
Experiment [3] relates to HEK293. The experiment is described as follows: cells. To be noted: Homo sapiens. This is another data set of the same source.
Experiment [4] has as its target T1, Tyrosine-protein phosphatase non-receptor type 7 (Homo sapiens, UniProt P35236).
T1 sequence (P35236 whole entry): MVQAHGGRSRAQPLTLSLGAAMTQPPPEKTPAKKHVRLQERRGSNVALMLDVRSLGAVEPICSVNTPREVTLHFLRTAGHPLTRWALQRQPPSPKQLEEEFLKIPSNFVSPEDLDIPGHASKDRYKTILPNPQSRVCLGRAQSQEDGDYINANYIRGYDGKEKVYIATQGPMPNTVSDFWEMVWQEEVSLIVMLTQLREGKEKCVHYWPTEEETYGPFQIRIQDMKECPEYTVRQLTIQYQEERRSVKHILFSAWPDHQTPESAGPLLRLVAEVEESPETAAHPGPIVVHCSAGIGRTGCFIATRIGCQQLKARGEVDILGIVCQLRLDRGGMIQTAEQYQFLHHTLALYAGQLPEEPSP
It counts as functional.

In experiment [5] the target is T2, Tyrosine-protein phosphatase non-receptor type 22 (Homo sapiens, UniProt Q9Y2R2).
T2 sequence (Q9Y2R2 whole entry): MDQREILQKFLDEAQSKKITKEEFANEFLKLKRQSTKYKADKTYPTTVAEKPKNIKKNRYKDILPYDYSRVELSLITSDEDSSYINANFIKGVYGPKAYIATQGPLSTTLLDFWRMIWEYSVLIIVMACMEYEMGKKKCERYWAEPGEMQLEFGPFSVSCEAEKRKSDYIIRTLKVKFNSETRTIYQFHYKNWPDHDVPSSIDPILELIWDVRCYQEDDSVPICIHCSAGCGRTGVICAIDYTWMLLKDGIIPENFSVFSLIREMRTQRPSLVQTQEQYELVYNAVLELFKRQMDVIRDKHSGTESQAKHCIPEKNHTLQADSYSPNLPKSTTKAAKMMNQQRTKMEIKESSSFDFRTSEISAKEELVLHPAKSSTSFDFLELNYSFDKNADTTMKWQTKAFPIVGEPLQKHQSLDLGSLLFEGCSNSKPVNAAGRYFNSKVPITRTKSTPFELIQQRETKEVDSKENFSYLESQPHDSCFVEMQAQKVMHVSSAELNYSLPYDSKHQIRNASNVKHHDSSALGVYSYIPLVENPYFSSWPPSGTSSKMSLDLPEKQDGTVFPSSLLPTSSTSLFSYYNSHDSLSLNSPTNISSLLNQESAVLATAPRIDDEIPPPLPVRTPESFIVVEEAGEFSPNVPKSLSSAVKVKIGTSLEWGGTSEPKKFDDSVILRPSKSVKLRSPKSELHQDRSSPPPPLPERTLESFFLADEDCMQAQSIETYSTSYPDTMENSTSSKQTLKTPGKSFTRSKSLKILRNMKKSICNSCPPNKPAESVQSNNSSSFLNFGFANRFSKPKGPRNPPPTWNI
It counts as functional.

The target in experiment [6] is T2, Tyrosine-protein phosphatase non-receptor type 22. It counts as functional. This is another data set of the same source.
Experiment [7] can be described thus: inhibitors of firefly luciferase expression or activity, dose response, H4 neuroglioma cells, luminescence (AID 1990). It counts as functional, cell-based.
For experiment [8], the target named is Glycogen synthase kinase-3 beta (Homo sapiens, UniProt P49841). Briefly: Inhibition of Human GSK-3 beta Activity Measured in Biochemical System Using Microfluidics - 2063-05_Inhibitor_Dose_DryPowder_Activity. [Related pubchem assays (depositor defined):AID2709].
Experiment [9] has as its target Glycogen synthase kinase-3 alpha (Homo sapiens, UniProt P49840). Briefly: Inhibition of Human GSK-3 alpha Activity Measured in Biochemical System Using Microfluidics - 2063-06_Inhibitor_Dose_DryPowder_Activity. [Related pubchem assays (depositor defined):AID2709].
A short description of experiment [10]: inhibitors of SNCA 5'UTR-driven reporter translation, confirmation, H4 neuroglioma cells, luminescence (AID 1988). The class given is functional, cell-based.
A short description of experiment [11]: Luminescence Cell-Based Dose Response HTS to Identify Inhibitors of 5'UTR Stem-Loop Driven Prion Protein mRNA Translation in H4 Neuroglioblastoma Cells. [Related pubchem assays: 1827 (Project Summary), 1813 (Primary HTS)]. It counts as functional.
For experiment [12], the target named is T3, Histone-lysine N-methyltransferase NSD2 (Homo sapiens, UniProt O96028).
T3 sequence (O96028 whole entry): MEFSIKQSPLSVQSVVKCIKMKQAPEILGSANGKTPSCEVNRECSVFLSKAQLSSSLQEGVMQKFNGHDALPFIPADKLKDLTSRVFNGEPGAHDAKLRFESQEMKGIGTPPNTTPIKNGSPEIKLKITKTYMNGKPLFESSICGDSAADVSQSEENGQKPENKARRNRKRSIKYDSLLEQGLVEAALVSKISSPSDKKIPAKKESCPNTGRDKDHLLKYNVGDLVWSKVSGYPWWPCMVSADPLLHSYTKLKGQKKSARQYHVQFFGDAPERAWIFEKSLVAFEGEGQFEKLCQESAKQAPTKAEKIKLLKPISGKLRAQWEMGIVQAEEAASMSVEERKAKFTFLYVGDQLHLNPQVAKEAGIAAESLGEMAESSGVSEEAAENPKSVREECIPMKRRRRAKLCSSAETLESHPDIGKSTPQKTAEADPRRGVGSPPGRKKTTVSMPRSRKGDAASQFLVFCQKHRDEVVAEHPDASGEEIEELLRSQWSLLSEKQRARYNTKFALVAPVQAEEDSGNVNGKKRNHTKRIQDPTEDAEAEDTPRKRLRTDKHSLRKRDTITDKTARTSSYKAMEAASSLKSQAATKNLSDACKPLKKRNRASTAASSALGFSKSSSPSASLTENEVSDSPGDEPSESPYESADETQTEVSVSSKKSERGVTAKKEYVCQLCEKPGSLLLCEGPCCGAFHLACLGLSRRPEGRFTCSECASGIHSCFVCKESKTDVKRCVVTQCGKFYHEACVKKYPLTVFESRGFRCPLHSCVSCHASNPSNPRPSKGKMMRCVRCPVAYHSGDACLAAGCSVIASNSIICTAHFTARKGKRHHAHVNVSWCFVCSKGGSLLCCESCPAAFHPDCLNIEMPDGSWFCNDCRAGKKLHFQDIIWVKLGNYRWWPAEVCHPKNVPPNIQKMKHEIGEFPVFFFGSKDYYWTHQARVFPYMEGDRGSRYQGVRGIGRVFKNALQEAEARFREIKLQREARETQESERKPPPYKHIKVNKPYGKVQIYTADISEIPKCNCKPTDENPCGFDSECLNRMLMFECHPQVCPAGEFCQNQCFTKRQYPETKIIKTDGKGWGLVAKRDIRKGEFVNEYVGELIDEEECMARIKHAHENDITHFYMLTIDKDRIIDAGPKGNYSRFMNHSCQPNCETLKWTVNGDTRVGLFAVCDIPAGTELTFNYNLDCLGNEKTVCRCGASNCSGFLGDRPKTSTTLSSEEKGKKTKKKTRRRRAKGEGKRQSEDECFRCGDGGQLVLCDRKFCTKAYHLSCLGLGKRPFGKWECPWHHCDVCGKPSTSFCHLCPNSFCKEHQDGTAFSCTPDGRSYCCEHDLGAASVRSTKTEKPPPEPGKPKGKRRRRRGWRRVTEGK
It counts as biochemical.

The target of experiment [13] is Dual specificity tyrosine-phosphorylation-regulated kinase 1A (Rattus norvegicus, UniProt Q63470). The class given is biochemical, Homo sapiens.
For a further experiment, the target named is T4, Cytochrome P450 1A2 (Homo sapiens, UniProt P05177).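 Also: PubChem cytochrome P450 panel assay, CYP1A2 panel member.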
T4 sequence (P05177 whole entry): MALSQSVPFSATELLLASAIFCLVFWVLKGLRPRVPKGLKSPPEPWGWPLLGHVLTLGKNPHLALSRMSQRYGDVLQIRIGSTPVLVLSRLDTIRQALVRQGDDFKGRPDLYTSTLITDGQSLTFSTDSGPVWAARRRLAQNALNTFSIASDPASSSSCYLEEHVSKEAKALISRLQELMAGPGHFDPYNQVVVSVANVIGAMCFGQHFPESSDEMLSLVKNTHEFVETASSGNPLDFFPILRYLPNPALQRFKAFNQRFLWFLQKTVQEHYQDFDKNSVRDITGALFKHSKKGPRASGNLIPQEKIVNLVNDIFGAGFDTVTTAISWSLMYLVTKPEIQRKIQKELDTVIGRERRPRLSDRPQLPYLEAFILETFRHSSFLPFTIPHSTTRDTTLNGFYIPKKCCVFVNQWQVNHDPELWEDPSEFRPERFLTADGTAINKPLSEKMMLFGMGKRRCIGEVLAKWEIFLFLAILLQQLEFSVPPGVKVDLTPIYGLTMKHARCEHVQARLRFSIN

The target of another experiment is Cytochrome P450 2D6 (Homo sapiens, UniProt P10635).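 Also: CYP2D6 member of a cytochrome P450 panel assay.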
Experiment [14] has as its target T5, Intestinal-type alkaline phosphatase (Homo sapiens, UniProt P09923). Briefly: human intestinal alkaline phosphatase activators, dose response, biochemical, luminescence, uHTS hits (AID 463120). It counts as functional.
Experiment [15] addresses T5, Intestinal-type alkaline phosphatase. The experiment is described as follows: human IAP activators, dose response, biochemical, luminescent, uHTS hits, set 2 (AID 488817).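 Also: potency of activators that raise enzyme activity.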 The class given is functional.
For experiment [16], the target named is T6, Alkaline phosphatase, tissue-nonspecific isozyme (Homo sapiens, UniProt P05186).
T6 sequence (P05186 whole entry): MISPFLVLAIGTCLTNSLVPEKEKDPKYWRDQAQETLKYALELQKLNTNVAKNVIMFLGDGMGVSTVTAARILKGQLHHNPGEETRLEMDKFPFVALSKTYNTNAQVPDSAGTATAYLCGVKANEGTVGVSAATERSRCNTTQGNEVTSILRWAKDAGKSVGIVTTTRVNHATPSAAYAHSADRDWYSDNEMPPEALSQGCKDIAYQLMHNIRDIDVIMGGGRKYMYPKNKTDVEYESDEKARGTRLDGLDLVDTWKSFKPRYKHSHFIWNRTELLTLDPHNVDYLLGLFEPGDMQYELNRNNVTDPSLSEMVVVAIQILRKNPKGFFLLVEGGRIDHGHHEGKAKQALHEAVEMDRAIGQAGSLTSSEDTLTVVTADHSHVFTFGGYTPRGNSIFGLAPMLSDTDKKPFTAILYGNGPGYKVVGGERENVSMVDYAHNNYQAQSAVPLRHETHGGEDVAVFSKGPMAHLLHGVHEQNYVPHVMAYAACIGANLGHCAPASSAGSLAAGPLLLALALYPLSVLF
The experiment is described as follows: TNAP enzyme activators, dose response, selectivity assay for human IAP activator project, biochemical, TNAP isozyme, human IAP uHTS hits (AID 488886).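 Also: potency of compounds raising TNAP activity as a selectivity check on IAP activators.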 It counts as functional.

The target of experiment [17] is Intestinal-type alkaline phosphatase (Mus musculus, UniProt P24822). The experiment is described as follows: PubChem AID 488875. It counts as functional.
Experiment [18] can be described thus: cytotoxicity in MIN6 insulinoma cells, dose response, cytotoxicity control, cell-based, mouse insulinoma (AID 2122).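 Also: confirmatory high-throughput counterscreen run to flag cytotoxic compounds; mouse MIN-6 beta cells carrying an insulin promoter eGFP reporter.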 It counts as functional.
The nature of experiment [19]: insulin promoter down-regulators in MIN6 cells, imaging, high-content screening, mouse beta cells (AID 1628). It counts as functional.

T5 sequence (P09923 whole entry): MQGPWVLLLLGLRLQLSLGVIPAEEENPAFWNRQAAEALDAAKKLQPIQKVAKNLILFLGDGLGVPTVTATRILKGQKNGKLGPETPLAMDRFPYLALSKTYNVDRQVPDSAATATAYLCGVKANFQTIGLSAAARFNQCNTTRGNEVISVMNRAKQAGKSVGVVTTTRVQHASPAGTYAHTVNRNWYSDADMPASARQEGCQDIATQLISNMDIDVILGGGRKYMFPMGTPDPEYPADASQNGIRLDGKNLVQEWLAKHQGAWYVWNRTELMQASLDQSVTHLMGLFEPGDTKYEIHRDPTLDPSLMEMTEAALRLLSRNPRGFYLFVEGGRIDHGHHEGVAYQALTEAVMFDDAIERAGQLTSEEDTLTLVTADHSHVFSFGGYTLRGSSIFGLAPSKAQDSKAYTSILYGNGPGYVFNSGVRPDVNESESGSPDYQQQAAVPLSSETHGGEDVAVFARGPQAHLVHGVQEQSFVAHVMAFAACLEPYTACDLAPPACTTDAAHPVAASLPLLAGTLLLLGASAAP
Intestinal-type alkaline phosphatase (Mus musculus, UniProt P24822), sequence (P24822 whole entry): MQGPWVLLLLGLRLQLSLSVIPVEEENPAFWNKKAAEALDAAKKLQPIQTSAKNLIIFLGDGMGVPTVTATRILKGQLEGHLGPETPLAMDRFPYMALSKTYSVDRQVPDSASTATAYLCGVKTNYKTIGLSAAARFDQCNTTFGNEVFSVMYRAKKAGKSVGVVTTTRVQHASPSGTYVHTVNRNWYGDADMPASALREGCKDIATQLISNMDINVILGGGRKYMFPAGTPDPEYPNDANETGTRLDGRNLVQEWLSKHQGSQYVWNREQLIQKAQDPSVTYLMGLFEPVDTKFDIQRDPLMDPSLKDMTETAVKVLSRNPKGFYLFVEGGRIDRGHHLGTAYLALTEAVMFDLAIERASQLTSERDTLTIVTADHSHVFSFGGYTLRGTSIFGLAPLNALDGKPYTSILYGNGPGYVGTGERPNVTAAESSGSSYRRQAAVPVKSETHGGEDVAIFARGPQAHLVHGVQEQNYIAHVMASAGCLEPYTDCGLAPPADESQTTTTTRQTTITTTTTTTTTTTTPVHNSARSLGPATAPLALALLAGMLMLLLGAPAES
Glycogen synthase kinase-3 beta, sequence (P49841 whole entry): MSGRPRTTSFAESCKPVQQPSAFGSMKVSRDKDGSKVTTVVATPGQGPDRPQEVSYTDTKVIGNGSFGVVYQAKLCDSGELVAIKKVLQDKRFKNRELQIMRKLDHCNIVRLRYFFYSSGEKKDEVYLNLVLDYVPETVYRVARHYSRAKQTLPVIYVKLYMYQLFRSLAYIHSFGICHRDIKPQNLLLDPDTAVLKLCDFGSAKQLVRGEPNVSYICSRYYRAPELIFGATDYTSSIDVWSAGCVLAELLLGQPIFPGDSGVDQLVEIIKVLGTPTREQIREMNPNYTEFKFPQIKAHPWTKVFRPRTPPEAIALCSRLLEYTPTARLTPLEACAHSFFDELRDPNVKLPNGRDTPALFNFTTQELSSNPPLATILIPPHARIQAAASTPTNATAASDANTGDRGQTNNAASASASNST
Beta-galactosidase, sequence (Q8VNN2 whole entry): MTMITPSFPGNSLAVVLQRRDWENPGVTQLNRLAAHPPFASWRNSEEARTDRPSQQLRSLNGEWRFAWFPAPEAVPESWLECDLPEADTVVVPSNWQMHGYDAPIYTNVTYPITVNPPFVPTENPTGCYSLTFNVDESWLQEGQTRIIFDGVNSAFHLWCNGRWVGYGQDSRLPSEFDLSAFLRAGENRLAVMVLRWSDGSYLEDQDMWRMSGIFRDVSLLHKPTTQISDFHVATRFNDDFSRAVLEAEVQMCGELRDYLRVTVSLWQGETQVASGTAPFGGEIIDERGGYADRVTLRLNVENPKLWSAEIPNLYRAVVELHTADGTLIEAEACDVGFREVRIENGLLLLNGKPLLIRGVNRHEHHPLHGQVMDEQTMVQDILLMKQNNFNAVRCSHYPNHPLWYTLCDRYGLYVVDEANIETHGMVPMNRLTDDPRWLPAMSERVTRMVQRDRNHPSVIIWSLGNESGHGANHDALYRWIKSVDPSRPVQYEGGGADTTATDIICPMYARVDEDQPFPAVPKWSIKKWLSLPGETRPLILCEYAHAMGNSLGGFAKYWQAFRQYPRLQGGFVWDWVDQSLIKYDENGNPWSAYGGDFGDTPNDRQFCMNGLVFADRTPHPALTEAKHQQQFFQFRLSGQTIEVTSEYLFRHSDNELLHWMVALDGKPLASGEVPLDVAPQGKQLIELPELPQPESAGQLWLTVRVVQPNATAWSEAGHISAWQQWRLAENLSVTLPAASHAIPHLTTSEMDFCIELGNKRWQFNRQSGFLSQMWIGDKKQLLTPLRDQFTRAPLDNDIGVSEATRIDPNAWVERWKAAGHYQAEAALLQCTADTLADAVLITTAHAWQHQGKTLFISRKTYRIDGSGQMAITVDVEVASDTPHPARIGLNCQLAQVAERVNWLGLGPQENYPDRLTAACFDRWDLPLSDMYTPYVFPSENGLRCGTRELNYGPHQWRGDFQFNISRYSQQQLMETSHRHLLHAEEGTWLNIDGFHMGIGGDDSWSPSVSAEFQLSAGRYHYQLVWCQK
Type-1 angiotensin II receptor, sequence (P30556 whole entry): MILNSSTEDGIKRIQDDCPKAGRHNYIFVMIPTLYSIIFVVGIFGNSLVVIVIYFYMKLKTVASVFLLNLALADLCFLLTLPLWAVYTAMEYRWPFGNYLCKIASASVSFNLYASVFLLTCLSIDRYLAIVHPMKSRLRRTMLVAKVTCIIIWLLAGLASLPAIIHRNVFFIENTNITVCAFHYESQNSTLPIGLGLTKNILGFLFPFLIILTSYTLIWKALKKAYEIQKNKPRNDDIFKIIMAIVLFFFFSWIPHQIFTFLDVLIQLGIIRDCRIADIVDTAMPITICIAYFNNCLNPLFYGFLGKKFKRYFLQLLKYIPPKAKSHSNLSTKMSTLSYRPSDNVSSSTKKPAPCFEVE
Glycogen synthase kinase-3 alpha, sequence (P49840 whole entry): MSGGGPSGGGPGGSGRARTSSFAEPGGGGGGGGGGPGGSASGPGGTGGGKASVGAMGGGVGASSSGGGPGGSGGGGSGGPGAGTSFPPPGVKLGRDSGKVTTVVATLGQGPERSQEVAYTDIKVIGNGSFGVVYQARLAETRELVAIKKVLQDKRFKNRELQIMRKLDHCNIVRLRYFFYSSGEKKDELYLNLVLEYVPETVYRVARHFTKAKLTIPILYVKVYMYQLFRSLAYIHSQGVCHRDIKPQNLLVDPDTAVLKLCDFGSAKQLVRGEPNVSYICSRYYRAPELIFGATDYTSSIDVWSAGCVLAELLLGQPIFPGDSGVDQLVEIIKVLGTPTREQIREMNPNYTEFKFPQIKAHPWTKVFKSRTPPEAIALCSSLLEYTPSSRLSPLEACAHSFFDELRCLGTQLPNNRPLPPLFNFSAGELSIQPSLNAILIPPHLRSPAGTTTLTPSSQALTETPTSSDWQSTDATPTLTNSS
Cytochrome P450 2D6, sequence (P10635 whole entry): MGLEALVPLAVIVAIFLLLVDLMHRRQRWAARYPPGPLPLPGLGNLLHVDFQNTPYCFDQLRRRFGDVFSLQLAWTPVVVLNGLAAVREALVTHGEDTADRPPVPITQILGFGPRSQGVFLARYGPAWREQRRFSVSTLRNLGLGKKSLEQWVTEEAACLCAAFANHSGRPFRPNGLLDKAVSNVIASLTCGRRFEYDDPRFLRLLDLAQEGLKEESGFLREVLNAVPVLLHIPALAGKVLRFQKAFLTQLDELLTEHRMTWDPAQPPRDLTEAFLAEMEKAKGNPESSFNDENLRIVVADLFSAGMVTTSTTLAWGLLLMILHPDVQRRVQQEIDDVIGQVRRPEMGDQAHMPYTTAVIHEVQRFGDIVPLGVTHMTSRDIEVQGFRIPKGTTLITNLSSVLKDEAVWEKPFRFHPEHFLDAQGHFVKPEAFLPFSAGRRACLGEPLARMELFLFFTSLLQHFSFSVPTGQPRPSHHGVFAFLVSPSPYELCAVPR

By IC50 is commonly meant the concentration at which inhibition is half-maximal. The term EC50 denotes the concentration needed to bring the measured effect to its halfway point. As for `O=c1c2cc(Br)ccc2[nH]c(=S)n1Cc1ccccn1`, the 50% inhibitory concentration (IC50) in experiment [1] is recorded as 29.7 µM (not active). Also, on Beta-galactosidase, the EC50 is > 40 µM (inactive).

For `COc1ccc(N2C(=O)CC(N(CCc3ccc(OC)c(OC)c3)C(S)=Nc3ccccc3)C2=O)cc1` (stereo not given), the EC50 in the experiment with HEK293 [2] and in the experiment on HEK293 [3] was > 59.6 µM (inactive) in each case.

As for `CC12CCC(=O)N1c1ccccc1C(=O)N2c1ccccc1` (stereo not given), the IC50 in [4], in experiment [5] and in experiment [6] was > 79.4 µM (inactive) throughout.

The term AC50 denotes the midpoint of the concentration-response curve, whichever way the signal moves. In the case of `C=CCNc1nc(N)c([N+](=O)[O-])c(Nc2ccccc2OC)n1`, the EC50 in experiment [7] was 11.4 µM (active); in experiment [10] it was 14.2 µM (active); in [11] it was 11.7 µM (active). For the same compound, the results for the half-maximal activity concentration (AC50) in experiment [8] and in experiment [9] were 0.0544 µM (active) and 0.388 µM (active), respectively.

Take `NC1(C(=O)O)CSSC1`: the EC50 in the experiment with HEK293 [2] and with HEK293 [3] was > 59.8 µM (inactive) throughout. The concentration at half-maximal activity (AC50) in experiment [12] is 14.5 µM (active).

With `OC[C@H]1O[C@@H](n2cnc3cc(Cl)c(Cl)cc32)[C@H](O)[C@@H]1O` [DICHLORORIBOBENZIMIDAZOLE], the concentration at half-maximal activity (AC50) in [13] is 3.76 µM (active).

With `c1ccc2c(CSc3nnc(-c4ccncc4)o3)cccc2c1`, the AC50 is 3.16 µM (inconclusive) on Cytochrome P450 1A2, 0.143 µM (active) in [8], 2.93 µM (active) in [9] and 0.501 µM (inconclusive) on Cytochrome P450 2D6.

Regarding `CN(CC(=O)Nc1ccccc1F)CC(=O)Nc1ccc(F)c(F)c1F`, the 50% effective concentration (EC50) in experiment [14] was 15.8 µM (active); in [15], 23.6 µM (active); in experiment [16], 23.3 µM (active); in [17], > 100 µM (inactive).

Consider `COc1ccc(NCc2nc3ccccc3n2CCOc2ccc(C)cc2)cc1`, for which the results for the IC50 in experiment [18] and in [19] were 4.54 µM (active) and 2 µM (active), respectively.

For `Cc1[nH]n(C(N)=S)c(=O)c1/N=N/c1ccc([N+](=O)[O-])cc1Cl`, the IC50 in experiment [1] is listed as > 40 µM (not active). Moreover, the EC50 at Beta-galactosidase was > 40 µM (inactive).

As for `N#CC(C(=O)NC1CCCCC1)=C1CCCCC1`, the IC50 in experiment [4], in experiment [5] and in [6] was > 79.4 µM (inactive) throughout.

For `Cc1nc(Nc2nc3c(c(=O)[nH]2)CCC3)nc2ccccc12`, the half-maximal effective concentration (EC50) is 13.1 µM (active) in experiment [14], 17.6 µM (active) in [15], 26.1 µM (active) in experiment [16] and > 100 µM (inactive) in experiment [17].
